The record followed here is PubChem BioAssay AID256 (DTP/NCI, 2004).

Values joined by “and” are separate entries in the source; they are usually repeats but may differ in a detail not shown here. Identical values can stand only once. Toxic doses and inconclusive results are not listed.

For the assay, the system named is CD2F1 mice, L1210 leukemia ip, survival T/C. As to the kind of experiment: NCI In Vivo Anticancer Drug Screen. Data for tumor model L1210 Leukemia (intraperitoneal) in CD2F1 (CDF1) mice. The note with it: higher = longer survival. The essentials: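 Vehicle-treated tumor-bearing mice served as controls (C) for compound-treated mice (T). Reported figure is T divided by C.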

The mark [1] stands for this setting: endpoint: mean survival time, dose: 100.0 mg/kg/injection, schedule: Q01DX001 (ip), vehicle: saline.
[2] abbreviates: endpoint: mean survival time, dose: 200.0 mg/kg/injection, schedule: Q01DX001 (ip), vehicle: saline.
The mark [3] stands for this setting: endpoint: mean survival time, dose: 400.0 mg/kg/injection, schedule: Q01DX001 (ip), vehicle: saline.
[4] abbreviates: endpoint: mean survival time, dose: 25.0 mg/kg/injection, schedule: Q01DX009 (ip), vehicle: saline with Tween-80.
The mark [5] stands for this setting: endpoint: mean survival time, dose: 50.0 mg/kg/injection, schedule: Q01DX009 (ip), vehicle: saline with Tween-80.
The mark [6] stands for this setting: endpoint: mean survival time, dose: 100.0 mg/kg/injection, schedule: Q01DX001 (ip), vehicle: saline with Tween-80.
The mark [7] stands for this setting: endpoint: mean survival time, dose: 100.0 mg/kg/injection, schedule: Q01DX009 (ip), vehicle: saline with Tween-80.
Setting [8] is: endpoint: mean survival time, dose: 200.0 mg/kg/injection, schedule: Q01DX009 (ip), vehicle: saline with Tween-80.
Where [9] appears, read: endpoint: mean survival time, dose: 50.0 mg/kg/injection, schedule: Q01DX005 (ip), vehicle: water.
[10] abbreviates: endpoint: mean survival time, dose: 100.0 mg/kg/injection, schedule: Q01DX005 (ip), vehicle: water.
[11] abbreviates: endpoint: mean survival time, dose: 100.0 mg/kg/injection, schedule: Q01DX009 (ip), vehicle: saline.
The mark [12] stands for this setting: endpoint: mean survival time, dose: 200.0 mg/kg/injection, schedule: Q01DX005 (ip), vehicle: water.
Where [13] appears, read: endpoint: mean survival time, dose: 200.0 mg/kg/injection, schedule: Q01DX009 (ip), vehicle: saline.
Where [14] appears, read: endpoint: mean survival time, dose: 400.0 mg/kg/injection, schedule: Q01DX009 (ip), vehicle: saline.

As to `O=[N+]([O-])c1c(Cl)cc(Cl)c(-c2c(Cl)cc(Cl)c([N+](=O)[O-])c2Cl)c1Cl`, the T/C by setting is: (endpoint: mean survival time, dose: 12.5 mg/kg/injection, schedule: Q01DX009 (ip), vehicle: water) 97 % of control; (endpoint: mean survival time, dose: 25.0 mg/kg/injection, schedule: Q01DX009 (ip), vehicle: water) 100 % of control; (endpoint: mean survival time, dose: 50.0 mg/kg/injection, schedule: Q01DX009 (ip), vehicle: water) 94 % of control; (endpoint: mean survival time, dose: 100.0 mg/kg/injection, schedule: Q01DX009 (ip), vehicle: water) 95 % of control; (endpoint: mean survival time, dose: 200.0 mg/kg/injection, schedule: Q01DX009 (ip), vehicle: water) 94 % of control.

For the compound `Clc1cc(N2CC2)nc(N2CC2)n1`, the T/C reads like this: (endpoint: mean survival time, dose: 0.94 mg/kg/injection, schedule: Q01DX009 (ip), vehicle: saline) 122 % of control; (endpoint: mean survival time, dose: 1.41 mg/kg/injection, schedule: Q01DX009 (ip), vehicle: saline) 150 % of control; (endpoint: mean survival time, dose: 1.6 mg/kg/injection, schedule: Q01DX009 (ip), vehicle: saline) 120 % of control; (endpoint: mean survival time, dose: 4.5 mg/kg/injection, schedule: Q01DX009 (ip), vehicle: saline) 168 % of control; (endpoint: mean survival time, dose: 7.5 mg/kg/injection, schedule: Q01DX009 (ip), vehicle: saline) 89 % of control.

`Cn1ncc(C(=O)O)c1[N+](=O)[O-]`: the T/C is 102 % of control under setting [1], 103 % of control under setting [2] and 94 % of control under setting [3].

`CC(=O)Oc1ccc2ccccc2c1`: the T/C is, setting by setting: under setting [4], 100 % of control; under setting [5], 107 % of control; under setting [6], 107 % of control.

Regarding `O=C(O/N=C(\CN1CCOCC1)c1ccc(Cl)cc1)c1ccccc1`, the T/C is 86 % of control (endpoint: mean survival time, dose: 100.0 mg/kg/injection, schedule: Q04DX003 (ip), vehicle: Klucel (hydroxypropylcellulose) (HPC)); 90 % of control (endpoint: mean survival time, dose: 200.0 mg/kg/injection, schedule: Q04DX003 (ip), vehicle: Klucel (hydroxypropylcellulose) (HPC)); 94 % of control (endpoint: mean survival time, dose: 400.0 mg/kg/injection, schedule: Q04DX003 (ip), vehicle: Klucel (hydroxypropylcellulose) (HPC)).

As to `CCCCOCN(COCCCC)C(C)Cc1ccccc1` (configuration not stated), the T/C (endpoint: mean survival time, dose: 12.5 mg/kg/injection, schedule: Q01DX009 (ip), vehicle: saline with Tween-80) is 94 % of control and 97 % of control; the T/C under setting [4] was 97 % of control and 102 % of control; the T/C under setting [5] was 93 % of control and 102 % of control; the T/C under setting [7] is 114 % of control and 95 % of control; the T/C under setting [8] is 123 % of control and 112 % of control.

On to `CCOC(=O)Cc1cnc(SC)nc1Nc1ccc(C)cc1`, for which the T/C under setting [6] is 97 % of control; the T/C (endpoint: mean survival time, dose: 200.0 mg/kg/injection, schedule: Q01DX001 (ip), vehicle: saline with Tween-80) is 108 % of control; the T/C (endpoint: mean survival time, dose: 400.0 mg/kg/injection, schedule: Q01DX001 (ip), vehicle: saline with Tween-80) was 106 % of control.

On to `O=c1cnn(C2OC(CO)C(O)C2O)c(=O)[nH]1` (configuration not stated), for which the T/C is 119 % of control (endpoint: mean survival time, dose: 12.5 mg/kg/injection, schedule: Q03HX024 (ip), vehicle: saline); 115 % of control and 120 % of control under setting [9]; 91 % of control (endpoint: mean survival time, dose: 50.0 mg/kg/injection, schedule: Q03HX024 (ip), vehicle: saline); 105 % of control under setting [1]; 117 % of control and 121 % of control and 106 % of control under setting [10]; 119 % of control (endpoint: mean survival time, dose: 100.0 mg/kg/injection, schedule: Q01DX009 (ip), vehicle: distilled water + Tween-80). Also, the T/C under setting [11] was 122 % of control; the T/C (endpoint: mean survival time, dose: 143.0 mg/kg/injection, schedule: Q03HX016 (ip), vehicle: other) is 122 % of control; the T/C under setting [2] was 101 % of control; the T/C under setting [12] is 121 % of control and 123 % of control and 108 % of control; the T/C under setting [13] is 86 % of control; the T/C (endpoint: mean survival time, dose: 300.0 mg/kg/injection, schedule: Q03HX024 (ip), vehicle: other) was 151 % of control. Besides, the T/C reads like this: under setting [3], 108 % of control; (endpoint: mean survival time, dose: 400.0 mg/kg/injection, schedule: Q01DX005 (ip), vehicle: water) 116 % of control; under setting [14], 94 % of control; (endpoint: mean survival time, dose: 500.0 mg/kg/injection, schedule: Q03HX016 (ip), vehicle: other) 152 % of control; (endpoint: mean survival time, dose: 500.0 mg/kg/injection, schedule: Q03HX024 (ip), vehicle: other) 181 % of control; (endpoint: mean survival time, dose: 800.0 mg/kg/injection, schedule: Q01DX001 (ip), vehicle: saline) 110 % of control. The T/C is 110 % of control (endpoint: mean survival time, dose: 800.0 mg/kg/injection, schedule: Q01DX005 (ip), vehicle: water); 154 % of control (endpoint: mean survival time, dose: 800.0 mg/kg/injection, schedule: Q01DX009 (ip), vehicle: distilled water + Tween-80); 152 % of control (endpoint: mean survival time, dose: 1000.0 mg/kg/injection, schedule: Q03HX016 (ip), vehicle: other); 167 % of control (endpoint: mean survival time, dose: 1000.0 mg/kg/injection, schedule: Q03HX024 (ip), vehicle: other); 160 % of control (endpoint: mean survival time, dose: 1600.0 mg/kg/injection, schedule: Q01DX009 (ip), vehicle: distilled water + Tween-80); 121 % of control (endpoint: mean survival time, dose: 1600.0 mg/kg/injection, schedule: Q01DX009 (ip), vehicle: saline).

Take `COC(CN(C)Cc1c[nH]c2ccccc12)OC`: the T/C (endpoint: mean survival time, dose: 75.0 mg/kg/injection, schedule: Q01DX001 (ip), vehicle: saline) was 107 % of control.

In the case of `Cc1ccc(C2=CSC3=NCCN23)cc1Cl`, the T/C is 116 % of control (endpoint: median survival time, dose: 6.25 mg/kg/injection, schedule: Q01DX005 (ip), vehicle: saline); 108 % of control (endpoint: median survival time, dose: 12.5 mg/kg/injection, schedule: Q01DX005 (ip), vehicle: saline); 109 % of control (endpoint: median survival time, dose: 25.0 mg/kg/injection, schedule: Q01DX005 (ip), vehicle: saline); 100 % of control (endpoint: median survival time, dose: 50.0 mg/kg/injection, schedule: Q01DX005 (ip), vehicle: saline).

In the case of `N#CCCN1CCOCC1`, the T/C runs as follows: under setting [11], 95 % of control; (endpoint: mean survival time, dose: 100.0 mg/kg/injection, schedule: Q04DX003 (ip), vehicle: saline) 92 % of control; under setting [13], 93 % of control; (endpoint: mean survival time, dose: 200.0 mg/kg/injection, schedule: Q04DX003 (ip), vehicle: saline) 103 % of control; under setting [14], 101 % of control; (endpoint: mean survival time, dose: 400.0 mg/kg/injection, schedule: Q04DX003 (ip), vehicle: saline) 103 % of control.

With `Nc1nc(N)nc(Cl)n1`, the T/C was 90 % of control (endpoint: mean survival time, dose: 25.0 mg/kg/injection, schedule: Q04DX002 (ip), vehicle: saline with Tween-80); 101 % of control (endpoint: mean survival time, dose: 50.0 mg/kg/injection, schedule: Q04DX002 (ip), vehicle: saline with Tween-80); 90 % of control (endpoint: mean survival time, dose: 100.0 mg/kg/injection, schedule: Q04DX002 (ip), vehicle: saline with Tween-80).

For `CCOC(OCC)c1cc(=O)[nH]c(N)n1`, the T/C under setting [1] is 103 % of control, the T/C under setting [2] was 101 % of control and the T/C under setting [3] was 100 % of control.

Regarding `CSc1nc(=O)[nH]nc1SCc1ccccc1`, the T/C runs as follows: (endpoint: mean survival time, dose: 100.0 mg/kg/injection, schedule: Q01DX001 (ip), vehicle: carboxymethylcellulose (CMC)) 100 % of control; (endpoint: mean survival time, dose: 200.0 mg/kg/injection, schedule: Q01DX001 (ip), vehicle: carboxymethylcellulose (CMC)) 91 % of control; (endpoint: mean survival time, dose: 400.0 mg/kg/injection, schedule: Q01DX001 (ip), vehicle: carboxymethylcellulose (CMC)) 89 % of control.

Regarding `Cc1ccccc1NC(=O)c1ccccc1`, the T/C is, setting by setting: under setting [7], 97 % of control; under setting [8], 100 % of control; (endpoint: mean survival time, dose: 400.0 mg/kg/injection, schedule: Q01DX009 (ip), vehicle: saline with Tween-80) 91 % of control.

As for `O=C(O)CC/C(=N\O)c1cccc([N+](=O)[O-])c1`, the T/C runs as follows: (endpoint: mean survival time, dose: 100.0 mg/kg/injection, schedule: Q04DX003 (ip), vehicle: saline with Tween-80) 102 % of control; (endpoint: mean survival time, dose: 200.0 mg/kg/injection, schedule: Q04DX003 (ip), vehicle: saline with Tween-80) 102 % of control; (endpoint: mean survival time, dose: 400.0 mg/kg/injection, schedule: Q04DX003 (ip), vehicle: saline with Tween-80) 98 % of control.

For the compound `CC1(O)Nc2nc3c(ncn3C3OC(CO)C(O)C3O)c(=O)n2C1O` (configuration not stated), the T/C (endpoint: mean survival time, dose: 12.5 mg/kg/injection, schedule: Q01DX005 (ip), vehicle: water) was 106 % of control; the T/C (endpoint: mean survival time, dose: 25.0 mg/kg/injection, schedule: Q01DX005 (ip), vehicle: water) was 95 % of control; the T/C under setting [9] was 93 % of control; the T/C under setting [10] was 101 % of control; the T/C under setting [12] is 95 % of control.
